Results taken from PubChem BioAssay (NCI).
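Exposure lasted 48 hours, with cells grown in 96-well plates and compounds tested at five concentrations. At the TGI there is no net growth.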

Tests used:
Test in all cases: DTP human tumour cell line panel, 48 h
M14 melanoma = test system: M14 melanoma
TK-10 renal = test system: TK-10 renal
NCI/ADR-RES ovarian = test system: NCI/ADR-RES ovarian
NCI-H226 lung = test system: NCI-H226 lung
SF-539 CNS = test system: SF-539 CNS
HOP-62 NSCLC = test system: HOP-62 NSCLC
SN12C renal = test system: SN12C renal
PC-3 prostate = test system: PC-3 prostate
SF-268 CNS = test system: SF-268 CNS
UACC-62 melanoma = test system: UACC-62 melanoma
HT29 colon = test system: HT29 colon
RXF 393 renal = test system: RXF 393 renal
MDA-MB-231 breast = test system: MDA-MB-231 breast
SR leukemia = test system: SR leukemia
MCF7 breast = test system: MCF7 breast
T-47D breast = test system: T-47D breast
CCRF-CEM leukemia = test system: CCRF-CEM leukemia
HCT-15 colon = test system: HCT-15 colon
UACC-257 melanoma = test system: UACC-257 melanoma
SK-OV-3 ovarian = test system: SK-OV-3 ovarian
786-0 renal = test system: 786-0 renal
EKVX NSCLC = test system: EKVX NSCLC
NCI-H522 lung = test system: NCI-H522 lung
MDA-MB-435 = test system: MDA-MB-435
ACHN renal = test system: ACHN renal
OVCAR-8 ovarian = test system: OVCAR-8 ovarian
KM12 colon = test system: KM12 colon
A498 renal = test system: A498 renal
SW-620 colon = test system: SW-620 colon
MALME-3M melanoma = test system: MALME-3M melanoma
LOX IMVI melanoma = test system: LOX IMVI melanoma
OVCAR-5 ovarian = test system: OVCAR-5 ovarian
COLO 205 colon = test system: COLO 205 colon
MDA-N = test system: MDA-N
NCI-H23 lung = test system: NCI-H23 lung
HCT-116 colon = test system: HCT-116 colon
DU-145 prostate = test system: DU-145 prostate
HOP-92 NSCLC = test system: HOP-92 NSCLC
HS 578T breast = test system: HS 578T breast
OVCAR-3 ovarian = test system: OVCAR-3 ovarian
UO-31 renal = test system: UO-31 renal
SK-MEL-28 melanoma = test system: SK-MEL-28 melanoma
RPMI-8226 leukemia = test system: RPMI-8226 leukemia
MOLT-4 leukemia = test system: MOLT-4 leukemia
BT-549 breast = test system: BT-549 breast
OVCAR-4 ovarian = test system: OVCAR-4 ovarian
A549 NSCLC = test system: A549 NSCLC
SK-MEL-2 melanoma = test system: SK-MEL-2 melanoma
SNB-75 CNS = test system: SNB-75 CNS
HCC-2998 colon = test system: HCC-2998 colon
HL-60(TB) leukemia = test system: HL-60(TB) leukemia
IGROV1 ovarian = test system: IGROV1 ovarian
SNB-19 CNS = test system: SNB-19 CNS
K-562 leukemia = test system: K-562 leukemia
CAKI-1 renal = test system: CAKI-1 renal
SK-MEL-5 melanoma = test system: SK-MEL-5 melanoma
U251 CNS = test system: U251 CNS
SF-295 CNS = test system: SF-295 CNS
NCI-H460 lung = test system: NCI-H460 lung

Compound: Oc1c(C(Nc2ccccn2)c2ccccc2)ccc2cccnc12 (stereo not drawn)
- TGI (M14 melanoma): > 52.6 µM
- TGI (TK-10 renal): > 25.9 µM
- TGI (NCI/ADR-RES ovarian): 8.73 µM
- TGI (NCI-H226 lung): 7.54 µM
- TGI (SF-539 CNS): 9.68 µM
- TGI (HOP-62 NSCLC): > 68.3 µM
- TGI (SN12C renal): 17.4 µM
- TGI (PC-3 prostate): 30.3 µM
- TGI (SF-268 CNS): 25.3 µM
- TGI (UACC-62 melanoma): 22.2 µM
- TGI (HT29 colon): > 86.5 µM
- TGI (RXF 393 renal): 40.1 µM
- TGI (MDA-MB-231 breast): 16.4 µM
- TGI (SR leukemia): > 22.6 µM
- TGI (MCF7 breast): > 100 µM
- TGI (T-47D breast): > 31.6 µM
- TGI (CCRF-CEM leukemia): 3.81 µM
- TGI (HCT-15 colon): > 100 µM
- TGI (UACC-257 melanoma): > 100 µM
- TGI (SK-OV-3 ovarian): 63.8 µM
- TGI (786-0 renal): > 37.2 µM
- TGI (EKVX NSCLC): 28.6 µM
- TGI (NCI-H522 lung): 11.8 µM
- TGI (MDA-MB-435): > 100 µM
- TGI (ACHN renal): 29.1 µM
- TGI (OVCAR-8 ovarian): 23.7 µM
- TGI (KM12 colon): > 100 µM
- TGI (A498 renal): 54.8 µM
- TGI (SW-620 colon): > 100 µM
- TGI (MALME-3M melanoma): 22 µM
- TGI (LOX IMVI melanoma): 37.9 µM
- TGI (OVCAR-5 ovarian): > 100 µM
- TGI (COLO 205 colon): 65.9 µM
- TGI (MDA-N): > 100 µM
- TGI (NCI-H23 lung): > 77 µM
- TGI (HCT-116 colon): 21.3 µM
- TGI (DU-145 prostate): > 100 µM
- TGI (HOP-92 NSCLC): 9.97 µM
- TGI (HS 578T breast): > 87.9 µM
- TGI (OVCAR-3 ovarian): 12.4 µM
- TGI (UO-31 renal): 41.4 µM
- TGI (SK-MEL-28 melanoma): > 100 µM
- TGI (RPMI-8226 leukemia): 29.3 µM
- TGI (MOLT-4 leukemia): > 25.4 µM
- TGI (BT-549 breast): > 93.4 µM
- TGI (OVCAR-4 ovarian): 31.9 µM
- TGI (A549 NSCLC): > 100 µM
- TGI (SK-MEL-2 melanoma): > 28.4 µM
- TGI (SNB-75 CNS): > 60.9 µM
- TGI (HCC-2998 colon): > 100 µM
- TGI (HL-60(TB) leukemia): 6.17 µM
- TGI (IGROV1 ovarian): 16.3 µM
- TGI (SNB-19 CNS): > 100 µM
- TGI (K-562 leukemia): 24.9 µM
- TGI (CAKI-1 renal): > 87.4 µM
- TGI (SK-MEL-5 melanoma): 15.5 µM
- TGI (U251 CNS): 12.3 µM
- TGI (SF-295 CNS): > 30.3 µM

Compound: CC1=C(CCC(C)CO)O[C@H]2C[C@H]3[C@@H]4CC[C@H]5C[C@@H](O)CC[C@]5(C)[C@H]4CC(=O)[C@]3(C)[C@@H]12 (stereo partly drawn)
- TGI (M14 melanoma): 27 µM
- TGI (TK-10 renal): 46.7 µM
- TGI (NCI/ADR-RES ovarian): 40.6 µM
- TGI (NCI-H226 lung): > 82.2 µM
- TGI (SF-539 CNS): 72.7 µM
- TGI (HOP-62 NSCLC): 38.3 µM
- TGI (SN12C renal): 53.2 µM
- TGI (PC-3 prostate): 21.2 µM
- TGI (SF-268 CNS): 57.6 µM
- TGI (UACC-62 melanoma): 18.1 µM
- TGI (HT29 colon): 71.8 µM
- TGI (RXF 393 renal): 73.8 µM
- TGI (MDA-MB-231 breast): 47.3 µM
- TGI (NCI-H460 lung): 21.8 µM
- TGI (SR leukemia): 36.4 µM
- TGI (MCF7 breast): > 59.4 µM
- TGI (T-47D breast): 29.2 µM
- TGI (CCRF-CEM leukemia): 23.8 µM
- TGI (HCT-15 colon): 57.6 µM
- TGI (UACC-257 melanoma): 36.6 µM
- TGI (SK-OV-3 ovarian): 43.4 µM
- TGI (786-0 renal): 52.4 µM
- TGI (EKVX NSCLC): > 90.2 µM
- TGI (NCI-H522 lung): 30.3 µM
- TGI (MDA-MB-435): 54.8 µM
- TGI (ACHN renal): > 69.7 µM
- TGI (OVCAR-8 ovarian): 44.3 µM
- TGI (KM12 colon): 30.4 µM
- TGI (A498 renal): 44 µM
- TGI (SW-620 colon): > 100 µM
- TGI (MALME-3M melanoma): 57.1 µM
- TGI (LOX IMVI melanoma): 33.8 µM
- TGI (OVCAR-5 ovarian): 71.1 µM
- TGI (COLO 205 colon): 27.7 µM
- TGI (MDA-N): 45.4 µM
- TGI (NCI-H23 lung): 36.6 µM
- TGI (HCT-116 colon): 47.7 µM
- TGI (DU-145 prostate): 55.1 µM
- TGI (HOP-92 NSCLC): 67.3 µM
- TGI (HS 578T breast): 52.5 µM
- TGI (OVCAR-3 ovarian): > 60.9 µM
- TGI (UO-31 renal): 33.3 µM
- TGI (SK-MEL-28 melanoma): > 78.5 µM
- TGI (RPMI-8226 leukemia): 13.8 µM
- TGI (MOLT-4 leukemia): 19.2 µM
- TGI (BT-549 breast): 58.4 µM
- TGI (OVCAR-4 ovarian): > 82.2 µM
- TGI (A549 NSCLC): 55.7 µM
- TGI (SK-MEL-2 melanoma): 30.6 µM
- TGI (SNB-75 CNS): 50.5 µM
- TGI (HL-60(TB) leukemia): 13.6 µM
- TGI (IGROV1 ovarian): 55 µM
- TGI (SNB-19 CNS): 55.5 µM
- TGI (K-562 leukemia): 40.7 µM
- TGI (CAKI-1 renal): 86.3 µM
- TGI (SK-MEL-5 melanoma): 23.5 µM
- TGI (U251 CNS): 37.8 µM
- TGI (SF-295 CNS): > 49.9 µM

Compound: C[C@]12CCC(=O)C=C1C[C@@H](O)[C@@H]1[C@@H]2CC[C@@]2(C)[C@H]1CC[C@]2(C)O
- TGI (M14 melanoma): > 100 µM
- TGI (TK-10 renal): > 100 µM
- TGI (NCI/ADR-RES ovarian): > 100 µM
- TGI (NCI-H226 lung): > 100 µM
- TGI (HOP-62 NSCLC): > 100 µM
- TGI (SN12C renal): > 100 µM
- TGI (PC-3 prostate): > 100 µM
- TGI (SF-268 CNS): > 100 µM
- TGI (UACC-62 melanoma): > 100 µM
- TGI (HT29 colon): > 100 µM
- TGI (RXF 393 renal): > 100 µM
- TGI (MDA-MB-231 breast): > 100 µM
- TGI (NCI-H460 lung): > 100 µM
- TGI (SR leukemia): > 100 µM
- TGI (MCF7 breast): > 100 µM
- TGI (T-47D breast): > 100 µM
- TGI (CCRF-CEM leukemia): > 100 µM
- TGI (HCT-15 colon): > 100 µM
- TGI (UACC-257 melanoma): > 100 µM
- TGI (SK-OV-3 ovarian): > 100 µM
- TGI (786-0 renal): > 100 µM
- TGI (EKVX NSCLC): > 100 µM
- TGI (NCI-H522 lung): > 100 µM
- TGI (MDA-MB-435): > 100 µM
- TGI (ACHN renal): > 100 µM
- TGI (OVCAR-8 ovarian): > 100 µM
- TGI (KM12 colon): > 100 µM
- TGI (A498 renal): > 100 µM
- TGI (SW-620 colon): > 100 µM
- TGI (MALME-3M melanoma): > 100 µM
- TGI (LOX IMVI melanoma): > 100 µM
- TGI (OVCAR-5 ovarian): > 100 µM
- TGI (COLO 205 colon): > 100 µM
- TGI (MDA-N): > 100 µM
- TGI (NCI-H23 lung): > 100 µM
- TGI (HCT-116 colon): > 100 µM
- TGI (DU-145 prostate): > 100 µM
- TGI (HOP-92 NSCLC): > 100 µM
- TGI (HS 578T breast): > 100 µM
- TGI (OVCAR-3 ovarian): > 100 µM
- TGI (UO-31 renal): > 100 µM
- TGI (SK-MEL-28 melanoma): > 100 µM
- TGI (RPMI-8226 leukemia): > 100 µM
- TGI (BT-549 breast): > 100 µM
- TGI (OVCAR-4 ovarian): > 100 µM
- TGI (A549 NSCLC): > 100 µM
- TGI (SK-MEL-2 melanoma): > 100 µM
- TGI (SNB-75 CNS): > 100 µM
- TGI (HCC-2998 colon): > 100 µM
- TGI (HL-60(TB) leukemia): > 100 µM
- TGI (IGROV1 ovarian): > 100 µM
- TGI (SNB-19 CNS): > 100 µM
- TGI (K-562 leukemia): > 100 µM
- TGI (CAKI-1 renal): > 100 µM
- TGI (SK-MEL-5 melanoma): > 100 µM
- TGI (U251 CNS): > 100 µM
- TGI (SF-295 CNS): > 100 µM
